The values below are quoted from earlier work in patent US11633350B2, “Hypotonic microbicidal formulations and methods of use” (priority 2014, dated 2023).

Data set [1] deals with HIV. The settings on record: PK/PD models.

As for `CC(C)OC(=O)OCOP(=O)(CO[C@H](C)Cn1cnc2c(N)ncnc21)OCOC(=O)OC(C)C.O=C(O)/C=C/C(=O)O` [TDF, 2,4,6,8-Tetraoxa-5-phosphanonanedioic acid, 5-[[(1R)-2-(6-amino-9H-purin-9-yl)-1-methylethoxy]methyl]-, bis(1-methylethyl) ester, 5-oxide, (2E)-2-butenedioate (1:1)], the “systemic (blood) TFV peak (Cmax) concentration” value (after a single oral TDF dose) is reported as 350 ng/mL. Besides, where the note is “in vivo”, the time to protection is recorded as 3 days. Moreover, the “time to achieve protective concentrations of TFV-DP in tissue” value (in vivo, po) is on record as “one week”.

Take `C[C@H](Cn1cnc2c(N)ncnc21)OCP(=O)(O)O` [tenofovir, (R)-9-(2-phosphonylmethoxypropyl)adenine]: in data set [1], the “plasma concentration associated with 90% protection (EC90)” value was 0.107 µg/mL.
